In patent publication US20240140986A1, “SYNTHETIC URSOLIC ACID DERIVATIVES AND METHODS OF USE THEREOF” (REATA PHARMACEUTICALS, INC., priority 2021, published 2024):

Columns and labels:
[1] = tested on: IFNγ-induced NO production in RAW 264.7 cells; test: Nitric Oxide Suppression Assay (IFNγ-induced NO, Griess nitrite readout); type: cell-based, mouse; conditions: for IC50: Mus musculus, RAW264.7, Table 2, RAW 264.7 cells, 2 h pretreatment, 20 ng/mL interferon gamma 24 h, read-out: Avg NO IC50 (nM) (Mean ± SD); for Avg NO IC50 Relative to RTA402 (fold): Table 2, ratio to RTA402
Method in brief: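 RAW 264.7 mouse macrophages in RPMI 1640 with 0.5% FBS were pretreated 2 h with compound (0.1% DMSO final), then stimulated with 20 ng/mL IFNγ for 24 h at 37° C. Supernatant nitrite was read by Griess absorbance at 525 nm against a nitrite standard curve, normalized to DMSO-IFNγ wells; IC50 from curve fit. Viability by WST-1.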

[2] = tested on: Nrf2 / ARE-dependent luciferase in AREc32 reporter cell line; test: AREc32 luciferase reporter activation (Nrf2 induction); type: cell-based, human; conditions: Table 2; for EC (2-fold): Homo sapiens, Arec32, concentration increasing luminescence 2-fold above vehicle, 19 h treatment, read-out: Avg AREc32 EC2X (nM) (Mean ± SD); for Relative Avg AREc32 EC2X Relative to RTA402 (fold): ratio to RTA402
Method in brief: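 EC2X is the concentration raising luminescence 2-fold above DMSO-treated cells, from a nonlinear-regression dose–response fit. Compounds (0.03–1000 nM) were applied for nineteen hours, starting one day after seeding 20,000 reporter cells per well. Luciferase was read with One-Glo reagent.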

For C[C@@H]1[C@H]2[C@H]3[C@H]4C[C@@H]5[C@@]6(C)C=C(C#N)C(=O)C(C)(C)[C@@H]6CC[C@@]5(C)[C@]3(C)CC[C@]2(CC[C@H]1C)C(=O)O4 [Compound T102], the IC50 [1] was 108 ± 19 nM, the “Avg NO IC50 Relative to RTA402 (fold)” value [1] was 36.5 ± 16.9 fold and the EC (2-fold) [2] was 338 ± 11 nM. The “Relative Avg AREc32 EC2X Relative to RTA402 (fold)” value [2] was 31.2 ± 5.3 fold.

CCNC(=O)CC[C@]12CC[C@@H](C)[C@H](C)[C@H]1[C@H]1C(=O)C[C@@H]3[C@@]4(C)C=C(C#N)C(=O)C(C)(C)[C@@H]4CC[C@@]3(C)[C@]1(C)CC2 [Compound T103] was tested, and the IC50 [1] was 22.1 ± 4.2 nM, the “Avg NO IC50 Relative to RTA402 (fold)” value [1] was 14.60 ± 0.59 fold and the EC (2-fold) [2] was 43.1 ± 10.4 nM. The “Relative Avg AREc32 EC2X Relative to RTA402 (fold)” value [2] was 4.52 ± 0.90 fold.

For CNC(=O)CC[C@]12CC[C@@H](C)[C@H](C)[C@H]1[C@H]1C(=O)C[C@@H]3[C@@]4(C)C=C(C#N)C(=O)C(C)(C)[C@@H]4CC[C@@]3(C)[C@]1(C)CC2 [Compound T104], the IC50 [1] was 19.1 ± 4.9 nM, the “Avg NO IC50 Relative to RTA402 (fold)” value [1] was 12.6 ± 1.9 fold and the EC (2-fold) [2] was 29.5 ± 2.5 nM. The “Relative Avg AREc32 EC2X Relative to RTA402 (fold)” value [2] was 3.15 ± 0.64 fold.

C[C@@H]1[C@H]2[C@H]3C(=O)C[C@@H]4[C@@]5(C)C=C(C#N)C(=O)C(C)(C)[C@@H]5CC[C@@]4(C)[C@]3(C)CC[C@@]2(CCC(=O)N2CCC2)CC[C@H]1C [Compound T105] was tested, and the IC50 [1] was 52.4 ± 13.8 nM, the “Avg NO IC50 Relative to RTA402 (fold)” value [1] was 36.7 ± 17^ fold and the EC (2-fold) [2] was 103 ± 37 nM. The “Relative Avg AREc32 EC2X Relative to RTA402 (fold)” value [2] was 10.7 ± 3.3 fold.

For C[C@@H]1[C@H]2[C@H]3C(=O)C[C@@H]4[C@@]5(C)C=C(C#N)C(=O)C(C)(C)[C@@H]5CC[C@@]4(C)[C@]3(C)CC[C@@]2(CNC(=O)OC(C)(C)C)CC[C@H]1C [Compound T106], the IC50 [1] was 57.4 ± 15.7 nM, the “Avg NO IC50 Relative to RTA402 (fold)” value [1] was 37.4 ± 3.76 fold and the EC (2-fold) [2] was 265 ± 21 nM. The “Relative Avg AREc32 EC2X Relative to RTA402 (fold)” value [2] was 28.2 ± 4.5 fold.

For CC(=N)NOC(=O)[C@]12CC[C@@H](C)[C@H](C)[C@H]1[C@H]1C(=O)C=C3[C@@]4(C)C=C(C#N)C(=O)C(C)(C)[C@@H]4CC[C@@]3(C)[C@]1(C)CC2 [Compound T107], the IC50 [1] was 17.7 ± 6.9 nM, the “Avg NO IC50 Relative to RTA402 (fold)” value [1] was 7.07 ± 1.53 fold and the EC (2-fold) [2] was 12.9 ± 1.5 nM. The “Relative Avg AREc32 EC2X Relative to RTA402 (fold)” value [2] was 1.17 ± 0.25 fold.
